Results published in ChEMBL document CHEMBL5338720, “Targeting σ2R/TMEM97 with novel aminotetralins” (Eur J Med Chem, 2022).

Assays:
[1] = target: Sigma non-opioid intracellular receptor 1 (Cavia porcellus, UniProt Q60492); assay: Displacement of [3H](+)-pentazocine from sigma 1 receptor in guinea pig brain assessed as inhibition constant by competition binding assay; assay type: tissue-based
[2] = target: T1, Sigma intracellular receptor 2 (Rattus norvegicus, UniProt Q5U3Y7); assay: Displacement of [3H]-ditolylguanidine from sigma 2 receptor/TMEM97 in rat PC-12 cells assessed as inhibition constant in the presence of (+)-pentazocine by competition binding assay; assay type: cell-based
T1 sequence (Q5U3Y7 whole entry): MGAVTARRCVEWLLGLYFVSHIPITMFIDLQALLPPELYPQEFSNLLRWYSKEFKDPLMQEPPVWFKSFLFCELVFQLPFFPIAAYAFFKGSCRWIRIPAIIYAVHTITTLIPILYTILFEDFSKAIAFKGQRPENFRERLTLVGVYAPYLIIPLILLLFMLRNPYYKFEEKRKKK

[3] = target: T2, Sigma intracellular receptor 2 (Homo sapiens, UniProt Q5BJF2); assay: Displacement of [3H]-ditolylguanidine from human sigma 2 receptor/TMEM97 transfected in HEK293 cells assessed as inhibition constant in the presence of (+)-pentazocine by competition binding assay; assay type: cell-based
T2 sequence (Q5BJF2 whole entry): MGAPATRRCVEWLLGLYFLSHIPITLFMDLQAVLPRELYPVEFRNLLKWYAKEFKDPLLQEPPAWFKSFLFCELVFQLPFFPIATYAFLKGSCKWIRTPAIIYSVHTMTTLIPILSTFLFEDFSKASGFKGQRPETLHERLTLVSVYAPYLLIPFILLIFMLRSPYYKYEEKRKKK

[4] = target: T2, Sigma intracellular receptor 2; assay: Potency index, ratio of JVW-1601 Ki to test compound Ki for displacement of [3H]-ditolylguanidine from human sigma 2 receptor/TMEM97 transfected in HEK293 cells assessed as inhibition constant in the presence of (+)-pentazocine by competition binding assay; assay type: cell-based
[5] = target: T3, Sigma non-opioid intracellular receptor 1 (Homo sapiens, UniProt Q99720); assay: Displacement of [3H](+)-pentazocine from human sigma 1 receptor transfected in HEK293 cells assessed as inhibition constant by competition binding assay; assay type: cell-based
T3 sequence (Q99720 whole entry): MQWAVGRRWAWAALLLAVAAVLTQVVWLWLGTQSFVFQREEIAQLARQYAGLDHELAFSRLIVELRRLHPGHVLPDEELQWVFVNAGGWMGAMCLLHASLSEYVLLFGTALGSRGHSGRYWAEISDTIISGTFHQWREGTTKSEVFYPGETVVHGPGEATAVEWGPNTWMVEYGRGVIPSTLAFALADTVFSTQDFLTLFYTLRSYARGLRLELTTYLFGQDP

[6] = target: Muscarinic acetylcholine receptor M1 (Homo sapiens, UniProt P11229); assay: Binding affinity at human muscarinic M1 receptor assessed as inhibition constant
Sequence of Muscarinic acetylcholine receptor M1 (P11229 whole entry): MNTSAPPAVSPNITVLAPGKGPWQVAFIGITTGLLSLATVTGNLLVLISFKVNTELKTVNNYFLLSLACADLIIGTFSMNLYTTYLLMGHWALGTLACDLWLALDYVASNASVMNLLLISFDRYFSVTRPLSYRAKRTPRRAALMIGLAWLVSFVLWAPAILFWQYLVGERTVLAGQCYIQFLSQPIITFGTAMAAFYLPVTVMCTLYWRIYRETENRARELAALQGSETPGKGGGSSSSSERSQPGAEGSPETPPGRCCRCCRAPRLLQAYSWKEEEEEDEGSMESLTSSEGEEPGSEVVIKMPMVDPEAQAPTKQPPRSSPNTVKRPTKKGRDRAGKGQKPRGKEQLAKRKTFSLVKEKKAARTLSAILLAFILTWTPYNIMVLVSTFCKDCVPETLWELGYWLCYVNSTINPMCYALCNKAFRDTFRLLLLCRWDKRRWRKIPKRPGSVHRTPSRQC

[7] = target: Sodium-dependent noradrenaline transporter (Homo sapiens, UniProt P23975); assay: Binding affinity at human Norepinephrine transporter assessed as inhibition constant
[8] = Ratio of unbound drug concentration in mouse brain to plasma at 10 mg/kg, ip measured after 4 hrs; assay type: ADME, organism-based; conditions: read-out: K(p,uu,brain)
[9] = target: Alpha-2C adrenergic receptor (Homo sapiens, UniProt P18825); assay: Binding affinity to human alpha 2C adrenergic receptor assessed as inhibition constant
Sequence of Alpha-2C adrenergic receptor (P18825 whole entry): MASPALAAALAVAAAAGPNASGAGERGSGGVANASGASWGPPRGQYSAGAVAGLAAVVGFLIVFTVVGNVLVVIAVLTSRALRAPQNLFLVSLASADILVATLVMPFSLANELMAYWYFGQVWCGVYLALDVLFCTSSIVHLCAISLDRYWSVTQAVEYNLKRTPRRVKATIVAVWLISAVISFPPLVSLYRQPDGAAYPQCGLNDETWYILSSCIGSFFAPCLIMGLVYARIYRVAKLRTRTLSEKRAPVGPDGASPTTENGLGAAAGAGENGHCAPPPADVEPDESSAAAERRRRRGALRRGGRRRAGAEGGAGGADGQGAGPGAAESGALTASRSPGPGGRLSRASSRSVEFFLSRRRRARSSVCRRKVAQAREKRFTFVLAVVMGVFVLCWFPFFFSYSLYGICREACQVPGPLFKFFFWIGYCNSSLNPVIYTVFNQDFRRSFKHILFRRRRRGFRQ

[10] = Binding affinity to human Ca2+ ion channel assessed as inhibition constant
[11] = target: Beta-1 adrenergic receptor (Homo sapiens, UniProt P08588); assay: Binding affinity to human beta 1 adrenergic receptor assessed as inhibition constant
[12] = target: Sodium-dependent serotonin transporter (Homo sapiens, UniProt P31645); assay: Binding affinity at human SERT assessed as inhibition constant
Sequence of Sodium-dependent serotonin transporter (P31645 whole entry): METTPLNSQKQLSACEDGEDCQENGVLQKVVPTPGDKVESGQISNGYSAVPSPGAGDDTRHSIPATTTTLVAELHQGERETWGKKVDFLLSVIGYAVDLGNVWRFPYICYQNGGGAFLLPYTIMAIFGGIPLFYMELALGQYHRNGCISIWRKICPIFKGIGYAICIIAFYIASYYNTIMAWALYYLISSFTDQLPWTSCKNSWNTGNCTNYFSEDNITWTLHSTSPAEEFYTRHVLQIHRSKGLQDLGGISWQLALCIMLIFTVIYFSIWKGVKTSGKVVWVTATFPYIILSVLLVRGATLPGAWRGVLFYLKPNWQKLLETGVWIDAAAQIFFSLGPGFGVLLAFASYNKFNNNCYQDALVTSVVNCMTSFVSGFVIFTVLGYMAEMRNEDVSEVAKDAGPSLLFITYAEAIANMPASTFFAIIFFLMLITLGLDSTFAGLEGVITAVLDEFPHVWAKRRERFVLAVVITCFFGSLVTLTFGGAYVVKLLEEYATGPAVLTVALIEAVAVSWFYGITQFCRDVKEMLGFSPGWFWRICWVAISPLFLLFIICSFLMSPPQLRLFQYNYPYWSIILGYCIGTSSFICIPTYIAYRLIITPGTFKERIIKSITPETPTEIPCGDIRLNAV

[13] = target: Muscarinic acetylcholine receptor M4 (Homo sapiens, UniProt P08173); assay: Binding affinity at human muscarinic M4 receptor assessed as inhibition constant
Sequence of Muscarinic acetylcholine receptor M4 (P08173 whole entry): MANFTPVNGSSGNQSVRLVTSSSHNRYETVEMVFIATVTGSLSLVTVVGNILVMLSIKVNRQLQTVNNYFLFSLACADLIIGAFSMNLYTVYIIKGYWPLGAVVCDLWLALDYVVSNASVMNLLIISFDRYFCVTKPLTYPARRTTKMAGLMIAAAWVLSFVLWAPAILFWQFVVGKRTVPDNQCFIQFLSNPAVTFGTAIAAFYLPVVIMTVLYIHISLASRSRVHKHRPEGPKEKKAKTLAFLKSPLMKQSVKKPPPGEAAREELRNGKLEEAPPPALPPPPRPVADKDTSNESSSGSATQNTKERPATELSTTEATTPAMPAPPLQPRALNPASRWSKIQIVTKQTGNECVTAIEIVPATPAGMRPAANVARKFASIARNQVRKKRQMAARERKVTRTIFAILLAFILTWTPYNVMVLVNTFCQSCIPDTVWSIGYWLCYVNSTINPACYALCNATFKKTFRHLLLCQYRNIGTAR

[14] = test system: P-glycoprotein (MDR1); assay: Efflux ratio of permeability in MDCK-MDR1 cells expressing P-glycoprotein; assay type: ADME, cell-based, Canis lupus familiaris; conditions: dog
[15] = target: Mu-type opioid receptor (Homo sapiens, UniProt P35372); assay: Binding affinity at human MOR assessed as inhibition constant
[16] = target: Beta-2 adrenergic receptor (Homo sapiens, UniProt P07550); assay: Binding affinity to human beta 2 adrenergic receptor assessed as inhibition constant
Sequence of Beta-2 adrenergic receptor (P07550 whole entry): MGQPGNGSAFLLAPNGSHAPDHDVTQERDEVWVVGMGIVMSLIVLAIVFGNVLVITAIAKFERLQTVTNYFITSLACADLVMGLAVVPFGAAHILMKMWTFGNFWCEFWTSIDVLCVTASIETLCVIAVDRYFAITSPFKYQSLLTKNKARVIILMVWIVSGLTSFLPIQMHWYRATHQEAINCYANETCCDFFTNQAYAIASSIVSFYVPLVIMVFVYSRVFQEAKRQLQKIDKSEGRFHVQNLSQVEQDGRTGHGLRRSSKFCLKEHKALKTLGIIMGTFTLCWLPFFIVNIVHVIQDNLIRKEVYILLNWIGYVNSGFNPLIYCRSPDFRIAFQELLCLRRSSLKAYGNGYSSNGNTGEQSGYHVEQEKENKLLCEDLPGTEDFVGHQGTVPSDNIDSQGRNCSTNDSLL

[17] = target: Alpha-1B adrenergic receptor (Homo sapiens, UniProt P35368); assay: Binding affinity to human alpha 1B adrenergic receptor assessed as inhibition constant
[18] = target: D(2) dopamine receptor (Homo sapiens, UniProt P14416); assay: Binding affinity to human dopamine D2 receptor assessed as inhibition constant
[19] = Drug concentration in mouse brain at 10 mg/kg, ip measured after 4 hrs; assay type: ADME, organism-based; conditions: read-out: Ct
[20] = target: Muscarinic acetylcholine receptor M2 (Homo sapiens, UniProt P08172); assay: Binding affinity at human muscarinic M2 receptor assessed as inhibition constant
Sequence of Muscarinic acetylcholine receptor M2 (P08172 whole entry): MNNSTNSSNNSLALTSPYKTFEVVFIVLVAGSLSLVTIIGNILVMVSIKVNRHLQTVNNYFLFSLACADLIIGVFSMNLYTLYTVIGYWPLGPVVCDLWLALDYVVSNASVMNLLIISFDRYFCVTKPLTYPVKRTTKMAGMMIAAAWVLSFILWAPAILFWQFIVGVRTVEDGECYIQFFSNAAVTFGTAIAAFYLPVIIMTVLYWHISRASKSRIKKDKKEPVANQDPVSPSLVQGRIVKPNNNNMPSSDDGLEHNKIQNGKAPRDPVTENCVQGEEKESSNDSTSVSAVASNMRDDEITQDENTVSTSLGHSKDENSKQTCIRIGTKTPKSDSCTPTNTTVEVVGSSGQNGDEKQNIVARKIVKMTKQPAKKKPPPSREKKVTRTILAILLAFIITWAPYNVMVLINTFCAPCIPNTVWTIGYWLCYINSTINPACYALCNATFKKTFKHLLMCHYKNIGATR

[21] = target: Delta-type opioid receptor (Homo sapiens, UniProt P41143); assay: Binding affinity at human DOR assessed as inhibition constant
[22] = target: Translocator protein (Homo sapiens, UniProt P30536); assay: Binding affinity at human PBR assessed as inhibition constant
Sequence of Translocator protein (P30536 whole entry): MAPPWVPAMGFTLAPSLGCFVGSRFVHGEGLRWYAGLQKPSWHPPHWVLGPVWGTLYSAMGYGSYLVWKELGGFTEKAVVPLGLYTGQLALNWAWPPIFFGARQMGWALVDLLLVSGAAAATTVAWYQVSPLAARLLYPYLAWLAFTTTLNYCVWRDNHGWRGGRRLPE

[23] = target: Muscarinic acetylcholine receptor M3 (Homo sapiens, UniProt P20309); assay: Binding affinity at human muscarinic M3 receptor assessed as inhibition constant
Sequence of Muscarinic acetylcholine receptor M3 (P20309 whole entry): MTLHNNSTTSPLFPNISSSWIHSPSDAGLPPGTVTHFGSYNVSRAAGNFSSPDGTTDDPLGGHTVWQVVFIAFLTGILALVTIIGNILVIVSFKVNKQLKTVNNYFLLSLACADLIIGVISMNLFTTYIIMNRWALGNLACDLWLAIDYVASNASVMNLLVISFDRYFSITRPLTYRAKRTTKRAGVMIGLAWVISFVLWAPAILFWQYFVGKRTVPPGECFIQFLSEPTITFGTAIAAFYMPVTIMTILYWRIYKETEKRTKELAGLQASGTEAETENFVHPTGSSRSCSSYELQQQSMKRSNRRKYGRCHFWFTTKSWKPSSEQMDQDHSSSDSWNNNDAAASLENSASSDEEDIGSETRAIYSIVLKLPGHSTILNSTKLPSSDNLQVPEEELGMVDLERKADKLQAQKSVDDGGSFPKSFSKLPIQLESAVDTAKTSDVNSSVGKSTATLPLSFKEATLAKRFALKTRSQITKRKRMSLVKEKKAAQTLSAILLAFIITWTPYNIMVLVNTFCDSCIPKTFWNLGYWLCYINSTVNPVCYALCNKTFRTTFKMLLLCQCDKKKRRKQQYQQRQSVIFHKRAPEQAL

[24] = Half-life in mouse at 10 mg/kg, ip; assay type: ADME, organism-based; conditions: in vivo
[25] = target: Kappa-type opioid receptor (Homo sapiens, UniProt P41145); assay: Binding affinity at human KOR assessed as inhibition constant
Sequence of Kappa-type opioid receptor (P41145 whole entry): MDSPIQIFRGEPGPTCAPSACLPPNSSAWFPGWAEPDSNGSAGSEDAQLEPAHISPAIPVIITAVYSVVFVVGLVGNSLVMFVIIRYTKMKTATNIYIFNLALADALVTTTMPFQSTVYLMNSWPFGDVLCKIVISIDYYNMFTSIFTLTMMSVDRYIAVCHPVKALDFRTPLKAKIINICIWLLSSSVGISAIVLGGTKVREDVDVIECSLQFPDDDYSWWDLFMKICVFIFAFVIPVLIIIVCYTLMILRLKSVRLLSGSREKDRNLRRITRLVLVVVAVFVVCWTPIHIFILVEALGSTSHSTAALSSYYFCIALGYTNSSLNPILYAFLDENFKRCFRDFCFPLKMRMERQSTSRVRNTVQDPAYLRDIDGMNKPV

[26] = target: 5-hydroxytryptamine receptor 1E (Homo sapiens, UniProt P28566); assay: Binding affinity to human 5HT1E receptor assessed as inhibition constant
[27] = Selectivity ratio of Ki for displacement of [3H](+)-pentazocine from sigma 1 receptor in guinea pig brain to Ki for displacement of [3H](+)-pentazocine from human sigma 1 receptor transfected in HEK293 cells; assay type: cell-based
[28] = target: Beta-3 adrenergic receptor (Homo sapiens, UniProt P13945); assay: Binding affinity to human beta 3 adrenergic receptor assessed as inhibition constant
[29] = target: Serotonin 3 (5-HT3) receptor; assay: Binding affinity to human 5HT3 receptor assessed as inhibition constant; assay type: protein-complex assay
[30] = Ratio of drug concentration in mouse brain to plasma at 10 mg/kg, ip measured after 4 hrs; assay type: ADME, organism-based; conditions: read-out: BPR
[31] = Selectivity ratio of Ki for displacement of [3H](+)-pentazocine from sigma 1 receptor in guinea pig brain to Ki for displacement of [3H]-ditolylguanidine from sigma 2 receptor/TMEM97 in rat PC-12 cells; assay type: cell-based
[32] = Selectivity ratio of Ki for displacement of [3H]-ditolylguanidine from human sigma 2 receptor/TMEM97 transfected in HEK293 cells to Ki for displacement of [3H]-ditolylguanidine from sigma 2 receptor/TMEM97 in rat PC-12 cells; assay type: cell-based
[33] = target: GABA-A receptor; anion channel; assay: Binding affinity at human GABA A receptor assessed as inhibition constant; assay type: protein-complex assay
[34] = target: T3, Sigma non-opioid intracellular receptor 1; assay: Binding affinity to sigma 1 receptor (unknown origin) assessed as inhibition constant
[35] = target: T2, Sigma intracellular receptor 2; assay: Binding affinity to sigma 2 receptor/TMEM97 (unknown origin) assessed as inhibition constant

Sequence of Sigma non-opioid intracellular receptor 1 (Cavia porcellus, UniProt Q60492) (Q60492 whole entry): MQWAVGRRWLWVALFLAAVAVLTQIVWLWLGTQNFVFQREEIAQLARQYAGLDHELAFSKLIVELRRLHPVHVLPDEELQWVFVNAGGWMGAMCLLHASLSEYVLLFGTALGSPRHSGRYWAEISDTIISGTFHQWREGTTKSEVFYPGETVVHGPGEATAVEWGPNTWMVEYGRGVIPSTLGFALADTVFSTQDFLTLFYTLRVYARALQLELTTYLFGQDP

SMILES: CCCN1CCN(c2ccc3c(c2)C(OC(=O)CCc2ccccc2)CCC3)CC1 (configuration not stated)
- Ki [1]: 33 nM
- Ki [2]: 25 nM

SMILES: CCN1CCN(c2ccc3c(c2)C(N(C)C(=O)OCc2ccccc2)CCC3)CC1 (configuration not stated)
- Ki [1]: 887 nM
- Ki [2]: 35 nM

SMILES: CCCN1CCN(c2ccc3c(c2)CCCC3N(C)C(=O)OCc2ccccc2)CC1 (configuration not stated)
- Ki [1]: 40 nM
- Ki [2]: 13 nM

SMILES: CCCN1CCN(c2ccc3c(c2)C(N(C)C(=O)/C=C/c2ccccc2)CCC3)CC1 (configuration not stated)
- Ki [3]: 9.6 nM
- Ratio Ki [4]: 3.4
- Ki [5]: 196 nM

SMILES: CCCN1CCN(c2ccc3c(c2)C(OCc2ccccc2)CCC3)CC1 (configuration not stated)
- Ki [1]: 104 nM
- Ki [2]: 50 nM

SMILES: CCCN1CCN(c2ccc3c(c2)C(N(CCC(=O)OCC)C(=O)OCc2ccccc2)CCC3)CC1 (configuration not stated)
- Ki [3]: 35 nM
- Ki [1]: 187 nM

SMILES: CCCN1CCN(c2ccc3c(c2)C(N(C)C(=O)OCc2ccccc2)CCC3)CC1 (configuration not stated)
- Ki [6]: > 10 µM
- Ki [7]: > 10 µM
- Kp uu at 4 h [8]: 0.36
- Ki [9]: > 10 µM
- Ki [10]: > 10 µM
- Ki [11]: > 10 µM
- Ki [12]: > 10 µM
- Ki [3]: 33 nM
- Ki [13]: > 10 µM
- efflux ratio [14]: 1
- Ki [15]: > 10 µM
- Ki [16]: > 10 µM
- Ki [17]: > 10 µM
- Ki [18]: > 10 µM
- concentration at 4 h [19]: 104 nM
- Ki [20]: > 10 µM
- Ki [1]: 200 nM
- Ki [21]: > 10 µM
- Ki [22]: 8.33 µM
- Ki [23]: > 10 µM
- half-life [24]: 72 min
- Ki [25]: > 10 µM
- Ki [26]: > 10 µM
- Ratio Ki [27]: 2.5
- Ki [2]: 5.5 nM
- Ki [28]: > 10 µM
- Ki [29]: > 10 µM
- Kp at 4 h [30]: 2.8
- Ratio Ki [31]: 36
- Ratio Ki [32]: 6
- Ki [5]: 82 nM
- Ki [33]: > 10 µM

SMILES: CCCN1CCN(c2ccc3c(c2)C(N(CCCO)C(=O)OCc2ccccc2)CCC3)CC1 (configuration not stated)
- Ki [3]: 135 nM
- Ki [1]: 254 nM

SMILES: Clc1ccc2c(c1)C1CC2CCCN1CCc1ccccc1 (configuration not stated)
- Ki [34]: 248 nM
- Ki [35]: 23 nM

SMILES: CN(C(=O)OCc1ccccc1)C1CCCc2ccc(N3CCN(CCCO)CC3)cc21 (configuration not stated)
- Ki [1]: 474 nM
- Ki [2]: 21 nM

SMILES: CCCN1CCN(c2ccc3c(c2)C(N(CC)C(=O)OCc2ccccc2)CCC3)CC1 (configuration not stated)
- Ki [1]: 321 nM
- Ki [2]: 4.6 nM

SMILES: CN1CCN(c2ccc3c(c2)C(N(C)C(=O)OCc2ccccc2)CCC3)CC1 (configuration not stated)
- Ki [1]: 2940 nM
- Ki [2]: 284 nM

SMILES: CCCN1CCN(c2ccc3c(c2)C(N(CCC)C(=O)OCc2ccccc2)CCC3)CC1 (configuration not stated)
- Ki [1]: 199 nM
- Ki [2]: 9.4 nM

SMILES: CN(C(=O)OCc1ccccc1)C1CCCc2ccc(N3CCN(C4CCCC4)CC3)cc21 (configuration not stated)
- Ki [1]: 86 nM
- Ki [2]: 2.1 nM

SMILES: COCCN1CCN(c2ccc3c(c2)C(N(C)C(=O)OCc2ccccc2)CCC3)CC1 (configuration not stated)
- Ki [3]: 128 nM
- Ki [1]: 1050 nM

SMILES: CCCN1CCN(c2cccc3c2CCCC3N(C)C(=O)OCc2ccccc2)CC1 (configuration not stated)
- Ki [1]: 12 nM
- Ki [2]: 26 nM

SMILES: CCCN1CCN(c2ccc3c(c2)C(OCCCc2ccccc2)CCC3)CC1 (configuration not stated)
- Ki [3]: 17 nM
- Ki [1]: 21 nM

SMILES: CCOC(=O)CN1CCN(c2ccc3c(c2)C(N(C)C(=O)OCc2ccccc2)CCC3)CC1 (configuration not stated)
- Ki [1]: > 10000 nM
- Ki [2]: 894 nM

SMILES: CN(C(=O)OCc1ccccc1)C1CCCc2ccc(N3CCN(C4CCCCC4)CC3)cc21 (configuration not stated)
- Ki [1]: 16 nM
- Ki [2]: 2.1 nM
- Ratio Ki [31]: 7.6

SMILES: CCCN1CCN(c2ccc3c(c2)C(OC/C=C/c2ccccc2)CCC3)CC1 (configuration not stated)
- Ki [3]: 15 nM
- Ki [1]: 140 nM

SMILES: CCCN1CCN(c2ccc3c(c2)C(N(C)C(=O)Cc2ccccc2)CCC3)CC1 (configuration not stated)
- Ki [3]: 53 nM
- Ki [5]: 188 nM

SMILES: CN(C(=O)OCc1ccccc1)C1CCCc2ccc(N3CCN(C4CCC4)CC3)cc21 (configuration not stated)
- Ki [1]: 266 nM
- Ki [2]: 12 nM
- Ratio Ki [31]: 41

SMILES: CCCN1CCN(c2ccc3c(c2)C(N(CCCCCCCCCCCN)C(=O)OCc2ccccc2)CCC3)CC1 (configuration not stated)
- Ki [2]: 16.6 nM

SMILES: CCCN1CCN(c2ccc3c(c2)C(N(C)C(=O)CCc2ccccc2)CCC3)CC1 (configuration not stated)
- Ki [3]: 17 nM
- Ki [1]: 973 nM
- Ratio Ki [4]: 2

SMILES: CC(C)N1CCN(c2ccc3c(c2)C(N(C)C(=O)OCc2ccccc2)CCC3)CC1 (configuration not stated)
- Ki [1]: 223 nM
- Ki [2]: 8.3 nM

SMILES: CCOC(=O)CCN1CCN(c2ccc3c(c2)C(N(C)C(=O)OCc2ccccc2)CCC3)CC1 (configuration not stated)
- Ki [1]: 1650 nM
- Ki [2]: 4.5 nM

SMILES: CCN(CC)C(=O)CCN1CCN(c2ccc3c(c2)C(N(C)C(=O)OCc2ccccc2)CCC3)CC1 (configuration not stated)
- Ki [1]: 2100 nM
- Ki [2]: 7.2 nM
